Reference: publication PMC3762611 (International Journal of Tryptophan Research : IJTR, 2013)

Molecular target: indoleamine 2,3-dioxygenase 1 (IDO1) (Homo sapiens, UniProt P14902)
Format: biochemical

indoleamine 2,3-dioxygenase 1 (IDO1), sequence (P14902 whole entry): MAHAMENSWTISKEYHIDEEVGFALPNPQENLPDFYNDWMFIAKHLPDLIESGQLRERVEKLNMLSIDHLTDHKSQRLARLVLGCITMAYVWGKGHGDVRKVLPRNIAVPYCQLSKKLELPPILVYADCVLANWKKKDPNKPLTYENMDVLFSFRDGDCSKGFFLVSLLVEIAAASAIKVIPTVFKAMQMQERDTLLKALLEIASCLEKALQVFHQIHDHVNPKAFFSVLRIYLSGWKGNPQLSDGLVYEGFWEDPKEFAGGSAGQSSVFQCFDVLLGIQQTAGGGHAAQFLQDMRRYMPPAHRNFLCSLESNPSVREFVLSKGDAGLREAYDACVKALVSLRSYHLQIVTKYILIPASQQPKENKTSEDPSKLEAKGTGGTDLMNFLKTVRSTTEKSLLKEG

For `CC1(C)CCC2=C(O1)c1ccccc1C(=O)C2=O` [β-lapachone, 3,4-dihydro-2,2-dimethyl-2H-naphthol[1,2-b]pyran-5,6-dione], which Ki is on record?
The Ki was 450 nM.
